The source of these data is publication PMC10499603, “Polθ is phosphorylated by PLK1 to repair double-strand breaks in mitosis” (Nature, 2023).

What all share (format): cell-based, human
The subject of series [1] is Polθ foci in G2, wild-type cells. Kind of series: Polθ foci in G2. The settings on record: aphidicolin 0.4 to 1.6 μM. As for the experimental part: Cells grown on coverslips were fixed for 15 min in 2% paraformaldehyde, permeabilized for 10 min in 0.5% Triton X-100, blocked for 30 min in BSA 5%, 0.1% Triton X-100, immunostained for 1 h with primary antibodies, 45 min with secondary antibodies (Highly Cross-Adsorbed Secondary Antibodies Alexa Fluor, ThermoFisher Scientific) and mounted Vectashield mounting medium containing DAPI (Vector Laboratories). The same protocol was applied to mitotic cells, which were collected by shake off and centrifuged onto glass slides using a cytospin centrifuge (400g, 5 min) before fixation. […] Biotin azide-EdU click-it reaction was performed after fixation and permeabilization by incubating cells with a mix of Picolyl biotin, CuSO4, THPTA (Jena Bioscience) and sodium ascorbate in PBS for 30 min in the dark followed by an incubation with streptavidin conjugated Alex fluor 647 antibody (ThermoFisher Scientific) during 1 h at room temperature. Images were taken at 60× or 100× magnification using Upright Spinning disk Confocal Microscope (Roper/Zeiss) or at 40× magnification using DeltaVision (Deconvolution) Image Restoration Microscope. All images were taken with a Z-stack of 0.4 μM on 8 μM range around focus and projected using maximum intensity projection. Images were analysed using the Fiji software. […] Images were mounted in SoftWoRx and analysed using the Fiji software (1.53c). […]

The subject of series [2] is Polθ foci formation in RPE-1 cells expressing GFP–Polθ. Kind of series: siRNA screen for ionizing radiation-induced Polθ foci formation. Particulars: 10 nM siRNA, 72 h, then 5 Gy, 2 h; cells with at least 5 Polθ foci; median RZ score of the three siRNAs, three replicate experiments. An excerpt: (§1) The Human DDR siRNA library comprising 1,746 single siRNAs representing 582 human genes (3 siRNAs per gene) was obtained from ThermoFisher Scientific (A30089). For controls, siRNAs targeting GL2, kinesin family member 11 (KIF11) and GM130 were used to assess transfection efficacy and induced cell toxicity. FANCD2 siRNA ([…]dT, defined as FANCD2-ctrl in Supplementary Table 1) was used as a positive control inhibiting Polθ foci formation. RPE-1 cells expressing GFP–Polθ (250 cells per well in 384-well plates) were grown overnight. siRNAs were incubated 15 min with 0.05 μl Interferin reagent (Polyplus transfection) and Opti-MEM (ThermoFisher Scientific) prior to being transferred into each 384-well plate wells, to obtain a 10 nM final concentration. Cells were irradiated 72 h after transfection, at a dose of 5 Gy (226 s) with the CIXD irradiator (RadeXp platform, Institut Curie) and incubated at 37 °C, 5% CO2 for 2 h. […] Polθ was then identified as organelles in the nuclei area and quantified by the average intensity of pixels within the defined organelles region. […] Corrected values were normalized as follows: sample median and median absolute deviation (MAD) were calculated from the Interferin-treated population of each internal plate data points (named as Ref pop) and used to compute robust Z-scores[59] […]

Series [3] deals with RPE-1 cells expressing GFP–Polθ. In words: siRNA screen, cell count.
Text: as §1

Consider `C[C@@]1(CO)[C@H](O)CC[C@@]2(C)[C@H]1CC[C@H]1C[C@@H]3C[C@@]12CC[C@]3(O)CO` [aphidicolin, Aphidicolin], for which the “Polθ foci in G2” value in series [1] is “Polθ foci in G2 could be induced by replication stress (aphidicolin treatment) in wild-type cells, to the level of that in BRCA2^−/− cells”. As for “GGAGAUUGAUGGUCUACUATdT (GGAGAUUGAUGGUCUACUATT; chemistry not given here) [fancd2-ctrl]”, the “Robust z score_corrected_Cells multi-foci_MultiFoci (%)” value in series [2] was -7.14. Besides, the Toxicity threshold result in series [3] is “Toxic”.
